Results published in ChEMBL document CHEMBL5104138, “Discovery of pyridyl urea sulfonamide inhibitors of NaV1.7” (Bioorg Med Chem Lett, 2022).
pIC50: −log10 of the molar value.

How the values were obtained:
[1] = target: T1, Sodium channel protein type 9 subunit alpha (Homo sapiens, UniProt Q15858); experiment: Inhibition of human Nav1.7 by PatchXpress assay
Target sequence in this assay (Q15858 whole entry): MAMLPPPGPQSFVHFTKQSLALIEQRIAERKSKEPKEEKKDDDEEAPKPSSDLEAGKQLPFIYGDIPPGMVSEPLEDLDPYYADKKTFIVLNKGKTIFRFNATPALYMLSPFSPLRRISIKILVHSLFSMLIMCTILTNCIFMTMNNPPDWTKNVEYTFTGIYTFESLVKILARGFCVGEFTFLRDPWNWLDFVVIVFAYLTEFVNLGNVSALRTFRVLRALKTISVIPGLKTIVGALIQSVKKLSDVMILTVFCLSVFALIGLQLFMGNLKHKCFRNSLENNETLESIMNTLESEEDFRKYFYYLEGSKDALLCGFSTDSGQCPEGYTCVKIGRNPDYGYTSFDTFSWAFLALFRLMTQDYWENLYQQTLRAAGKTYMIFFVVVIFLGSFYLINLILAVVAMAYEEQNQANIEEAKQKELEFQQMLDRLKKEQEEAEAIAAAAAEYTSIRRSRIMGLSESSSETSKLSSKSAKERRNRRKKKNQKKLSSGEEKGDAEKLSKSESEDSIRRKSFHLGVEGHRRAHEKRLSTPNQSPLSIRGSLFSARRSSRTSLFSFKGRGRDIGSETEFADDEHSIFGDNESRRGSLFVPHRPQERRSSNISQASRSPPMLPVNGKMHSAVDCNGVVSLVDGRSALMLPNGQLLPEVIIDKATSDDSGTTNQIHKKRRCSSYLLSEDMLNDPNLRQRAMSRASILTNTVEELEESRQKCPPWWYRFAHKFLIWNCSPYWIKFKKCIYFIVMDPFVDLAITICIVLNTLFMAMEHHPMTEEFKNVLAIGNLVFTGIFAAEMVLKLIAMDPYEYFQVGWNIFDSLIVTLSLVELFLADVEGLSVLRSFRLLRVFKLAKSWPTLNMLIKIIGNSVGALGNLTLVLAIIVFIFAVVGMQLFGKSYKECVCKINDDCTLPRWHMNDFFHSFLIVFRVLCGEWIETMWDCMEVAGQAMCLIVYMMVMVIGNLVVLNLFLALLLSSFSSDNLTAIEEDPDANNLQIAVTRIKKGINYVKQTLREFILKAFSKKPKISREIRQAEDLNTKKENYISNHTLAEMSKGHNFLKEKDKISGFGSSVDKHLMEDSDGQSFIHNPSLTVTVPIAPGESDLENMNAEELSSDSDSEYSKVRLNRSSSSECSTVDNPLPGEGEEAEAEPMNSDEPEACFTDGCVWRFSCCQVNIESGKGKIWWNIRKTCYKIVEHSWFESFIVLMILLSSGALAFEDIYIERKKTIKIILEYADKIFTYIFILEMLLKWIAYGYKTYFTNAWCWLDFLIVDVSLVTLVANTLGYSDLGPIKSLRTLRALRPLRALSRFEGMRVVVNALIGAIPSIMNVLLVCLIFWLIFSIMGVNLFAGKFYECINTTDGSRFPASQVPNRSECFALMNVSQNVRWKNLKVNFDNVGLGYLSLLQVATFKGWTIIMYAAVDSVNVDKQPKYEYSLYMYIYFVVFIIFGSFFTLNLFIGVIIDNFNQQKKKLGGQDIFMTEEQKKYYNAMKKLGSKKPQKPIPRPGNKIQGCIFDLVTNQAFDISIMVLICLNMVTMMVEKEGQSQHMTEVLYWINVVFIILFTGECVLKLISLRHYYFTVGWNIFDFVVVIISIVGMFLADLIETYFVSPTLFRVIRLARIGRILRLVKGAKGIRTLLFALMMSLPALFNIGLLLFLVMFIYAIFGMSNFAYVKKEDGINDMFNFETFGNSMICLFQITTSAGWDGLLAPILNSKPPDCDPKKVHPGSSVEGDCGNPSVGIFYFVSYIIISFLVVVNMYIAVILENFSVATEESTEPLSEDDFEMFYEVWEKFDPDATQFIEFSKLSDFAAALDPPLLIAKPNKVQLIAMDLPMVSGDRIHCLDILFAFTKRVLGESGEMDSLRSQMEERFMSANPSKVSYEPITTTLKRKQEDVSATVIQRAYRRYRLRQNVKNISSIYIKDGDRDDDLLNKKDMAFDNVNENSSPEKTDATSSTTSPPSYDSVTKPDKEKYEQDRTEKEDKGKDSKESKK

[2] = test system: Mus musculus; experiment: Antinociceptive activity in UV burn-induced thermal hyperalgesia mouse model assessed as reduction in latency time at 30 mg/kg, po relative to control; assay type: functional; design: scale not given: the % may be the effect or the level left
[3] = target: T2, Cytochrome P450 3A4 (Homo sapiens, UniProt P08684); experiment: Time dependent inhibition of CYP3A4 in human liver microsomes using midazolam as substrate incubated for 30 mins; assay type: ADME, Microsome
T2 sequence (P08684 whole entry): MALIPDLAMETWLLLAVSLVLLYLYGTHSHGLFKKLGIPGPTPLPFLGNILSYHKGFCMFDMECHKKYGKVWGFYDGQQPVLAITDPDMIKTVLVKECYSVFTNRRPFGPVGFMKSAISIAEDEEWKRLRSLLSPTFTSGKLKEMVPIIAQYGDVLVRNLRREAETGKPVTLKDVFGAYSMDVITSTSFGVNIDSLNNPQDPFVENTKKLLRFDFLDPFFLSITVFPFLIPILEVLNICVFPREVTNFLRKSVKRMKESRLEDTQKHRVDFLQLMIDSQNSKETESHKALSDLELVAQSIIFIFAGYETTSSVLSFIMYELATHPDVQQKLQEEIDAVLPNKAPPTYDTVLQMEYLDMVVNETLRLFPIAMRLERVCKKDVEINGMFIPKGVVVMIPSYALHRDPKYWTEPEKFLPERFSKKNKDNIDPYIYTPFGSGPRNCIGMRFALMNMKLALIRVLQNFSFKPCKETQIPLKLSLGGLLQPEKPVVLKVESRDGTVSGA

[4] = Clearance in rat at 0.5 mg/kg, iv; conditions: in vivo
[5] = Lipophilicity, logD of compound at pH 7.4; assay type: physicochemical; conditions: buffer
[6] = rat, in vivo, iv, 0.5 mg/kg
Description: Unbound clearance in rat at 0.5 mg/kg, iv

[7] = target: T2, Cytochrome P450 3A4; experiment: Time dependent inhibition of CYP3A4 in human liver microsomes using midazolam as substrate preincubated for 30 mins followed by substrate addition; assay type: ADME, Microsome
[8] = target: T1, Sodium channel protein type 9 subunit alpha; experiment: Inhibition of human Nav1.7 at 1 uM by PatchXpress assay relative to control
Target sequence in this assay (Q15858 whole entry, looked up): as the sequence (Q15858 whole entry) above

[9] = Intrinsic clearance in rat liver microsomes assessed as loss of parent compound incubated for 30 mins; assay type: ADME, Microsome; conditions: read-out: CLH
[10] = target: Cytochrome P450 2C9 (Homo sapiens, UniProt P11712); experiment: Inhibition of CYP2C9 (unknown origin) using diclofenac as substrate; assay type: ADME
Sequence of Cytochrome P450 2C9 (P11712 whole entry): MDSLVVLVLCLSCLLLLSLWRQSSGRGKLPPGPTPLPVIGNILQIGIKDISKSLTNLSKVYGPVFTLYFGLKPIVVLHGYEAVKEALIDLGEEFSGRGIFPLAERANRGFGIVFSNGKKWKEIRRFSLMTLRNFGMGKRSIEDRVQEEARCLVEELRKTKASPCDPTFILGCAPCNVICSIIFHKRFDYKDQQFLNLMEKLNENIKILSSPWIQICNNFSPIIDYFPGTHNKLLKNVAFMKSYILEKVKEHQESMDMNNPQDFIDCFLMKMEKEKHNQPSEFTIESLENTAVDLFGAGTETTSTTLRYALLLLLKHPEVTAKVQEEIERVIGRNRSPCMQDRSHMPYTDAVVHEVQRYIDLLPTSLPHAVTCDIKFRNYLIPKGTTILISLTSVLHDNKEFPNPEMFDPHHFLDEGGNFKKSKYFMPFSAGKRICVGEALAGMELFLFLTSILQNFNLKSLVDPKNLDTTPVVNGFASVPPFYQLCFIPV

[11] = Passive permeability of compound; assay type: ADME; conditions: not told; read-out: permeability
[12] = test system: Mus musculus; experiment: Antinociceptive activity in capsaicin-induced licking mouse model assessed as reduction in time spent on licking at 3 mg/kg, po relative to control; assay type: functional; design: scale not given: the % may be the effect or the level left

Compound	pIC50 [1]	pIC50 [3]	clearance [4]	CL free [6]	pIC50 [7]	other results
COc1cc(-c2ccc(Cl)c(C)c2)ccc1N(C(=O)N(C)C)c1ccc(S(=O)(=O)Nc2ccon2)cn1	< 5.30					
COc1ccc2cc([C@H](C)C(=O)O)ccc2c1 [NAPROXEN]						Activity [2]: 87%
CNC(=O)N(c1ccc(S(=O)(=O)Nc2ccon2)cn1)c1cc(Cl)c(-c2cc(F)c(F)c(F)c2)cc1OC		< 4.30	33.3 mL/min/kg	4770 mL/min/kg	< 4.30	logD [5]: 0.7
CNC(=O)C(c1ccc(S(=O)(=O)Nc2ccon2)cn1)c1ccc(-c2ccc(Cl)c(C)c2)cc1OC (stereo not given)						inhibition [8]: 4.9%
CNC(=O)N(c1ccc(S(=O)(=O)Nc2ncccn2)cn1)c1cc(F)c(-c2ccc(F)c(C(F)(F)F)c2)cc1OC		< 4.30	2.5 mL/min/kg	817 mL/min/kg	< 4.30	logD [5]: 1.2
CNC(=O)N(c1ccc(S(=O)(=O)Nc2ccon2)cn1)c1ccc(-c2ccc(Cl)c(C)c2)cc1OC	7.06	< 4.30	14.7 mL/min/kg	6130 mL/min/kg	< 4.30	microsomal CLint [9]: 29 µL/min/mg; pIC50 [10]: 5.48; logD [5]: 0.8
CNC(=O)N(c1ccc(S(=O)(=O)Nc2ccon2)cn1)c1cc(Cl)c(-c2cc(OC)cc(C(F)(F)F)c2)cc1OC		4.77			< 4.30	
COc1cc(-c2ccc(Cl)c(C)c2)ccc1N(C(C)=O)c1ccc(S(=O)(=O)Nc2ccon2)cn1	5.54					
CNC(=O)N(c1ccc(S(=O)(=O)Nc2ccon2)cn1)c1cc(Cl)c(-c2ccc(F)c(C(F)(F)F)c2)cc1OC		4.92			< 4.30	
CNC(=O)N(c1ccc(S(=O)(=O)Nc2ccon2)cc1)c1ccc(-c2ccc(Cl)c(C)c2)cc1OC	5.42		22.2 mL/min/kg	3000 mL/min/kg		Papp [11]: 1.5 ×10⁻⁶ cm/s
CN1CC[C@]23c4c5ccc(O)c4O[C@H]2[C@@H](O)C=C[C@H]3[C@H]1C5 [MORPHINE]						Activity [12]: 98%
COc1cc(-c2cccc(C(F)(F)F)c2)c(Cl)cc1N(C(N)=O)c1ccc(S(=O)(=O)Nc2ccon2)cn1	8.10		88.3 mL/min/kg			Papp [11]: < 1.5 ×10⁻⁶ cm/s
COc1cc(-c2ccc(Cl)c(C)c2)ccc1N(C(=O)NC(C)C)c1ccc(S(=O)(=O)Nc2ccon2)cn1						inhibition [8]: 3.9%
